Test results reported in US11370841B2, “Methods of treating fibroblast growth factor 19-mediated cancers and tumors” (NGM Biopharmaceuticals, Inc., priority 2016, dated 2022).

Columns and labels:
[1] = test system: FGF19-mediated HCC; assay: Tumorigenicity study in db/db mice (AAV-SOCS3, tofacitinib); format: in vivo
Protocol: Blood parameters. Blood was collected from tail vein in un-anesthetized animals using microvette serum gel tubes (Sarstedt) for measurements of glucose, insulin, ALT, AST, ALP, bile acids, and FGF19 concentrations. Serum samples were prepared by centrifugation at 4° C. for 10 minutes at 6000 g after clotting at room temperature for 30 minutes. For HbA1c measurements, whole blood was collected after euthanasia by cardiac puncture into EDTA-tubes and quickly inverted multiple times. HbA1c (from whole blood samples) and liver enzyme (from serum samples) levels were measured on Cobas Integra 400 Clinical Analyzer (Roche Diagnostics). Serum FGF19 level was determined by FGF19 enzyme-linked immunosorbent assays (ELISA) (Biovendor). Serum insulin was assessed with ELISA kits from ALPCO. Concentrations of total bile acids in serum were determined using a 3β-hydroxysteroid dehydrogenase method (Diazyme). All assays were performed according to the manufacturers' instructions.
Histology and immunohistochemistry. Livers were fixed in 10% neutral-buffered formalin and embedded in paraffin. 5 μm sections were deparaffinized in xylenes, rehydrated sequentially in graded ethanol (100%, 95%, 80%, 70%, 50%, 2 minutes each). Hematoxylin and eosin staining was performed using standard methods. For immunohistochemical studies, liver sections were subjected to antigen retrieval in a citrate-based Antigen Unmasking Solution (Vector Laboratories), and incubated for 30 minutes with 3% H2O2 at room temperature to block endogenous peroxidase activity. Sections were stained with primary antibodies against glutamine synthetase (Thermo Fisher), BrdU, PCNA, or STAT3 in PBS containing 10% goat serum. Biotinylated secondary antibodies, ABC-HRP reagent (Vectastain ABC kit, #PK-6100, Vector Laboratories) and di-amine-benzidine (DAB) colorimetric peroxidase substrate (#SK-4100, Vector Laboratories) were used for detection. When indicated, sections were counterstained with hematoxylin. Digital imaging microscopy was performed using a Leica DM4000 microscope equipped with DFC500 camera and a scanning platform (Leica). Images for the entire liver section were acquired by stitching 70-96 fields together using Surveyor program for morphometric analysis. Glutamine synthetase-positive tumor areas were quantified using Measure/Count/Area tool from ImagePro software.
Tumorigenicity study in db/db mice. 11 to 12 week old db/db mice received a single intravenous dose of AAV containing either FGF19 or a control gene (green fluorescent protein). Body weight and blood glucose were monitored. […] Mice were euthanized 24 weeks post-AAV administration and examined for liver tumor formation by gross appearance and histology.

[2] = test system: primary mouse hepatocytes; assay: In vitro BrdU incorporation in primary mouse hepatocytes; format: cell-based; settings: 48 hours incubation
Protocol: FIGS. 2A-2E depict non-cell autonomous promotion of hepatocellular proliferation by FGF19. 11 week old mice (n=5 per group) were implanted with osmotic pumps releasing BrdU (8.5 mg/kg/day) and FGF19 protein (0.4 mg/kg/day). Livers were harvested 6 days post-implant. (FIG. 2A) Flow cytometry analysis of BrdU-labeled livers is shown. Representative histograms from hepatocytes stained with 7-ADD and anti-BrdU-APC are shown. (FIG. 2B) BrdU-positive hepatocytes as a percentage of total hepatocytes from vehicle (V)-treated (n=5) or FGF19-treated (n=5) mice were quantified by flow cytometry. (FIG. 2C) Shown are circulating FGF19 levels on day 6 post-implant of osmotic pumps. (FIG. 2D) Lack of proliferative effects of FGF19 on primary mouse hepatocytes. Primary cultures of hepatocytes isolated from mouse liver were incubated with recombinant FGF19 protein at the indicated concentrations for 48 hours and BrdU was added during the last 20 hours of incubation. BrdU incorporation was determined using a luminescence method. Mouse hepatocyte growth factor (mHGF) was included as a positive control. RLU, relative luminescence unit. (FIG. 2E) Lack of proliferative effects of FGF19 on primary human hepatocytes. Primary cultures of hepatocytes isolated from human liver were incubated with recombinant FGF19 protein. Human hepatocyte growth factor (hHGF) was included as a positive control. […]

[3] = test system: primary mouse hepatocytes; assay: In vitro pSTAT3 activation in primary mouse hepatocytes; format: cell-based; settings: isolated mouse hepatocytes, 50 ng/ml
Protocol: Primary mouse hepatocytes were isolated from 8-10 week old wild type mice (BioReclamation/IVT). Cells were diluted in attachment media, and cells were plated on collagen-coated 6-well plate (Becton Dickinson). Four hours later, cells were changed into M199 media supplemented with 10% FBS, 2 mM glutamine, 100 unit/ml penicillin, 100 unit/ml streptomycin, and cultured for 16 hours at 37° C. When indicated, 50 ng/ml FGF19 protein or 50 ng/ml mouse IL-6 (Peprotech) were added.
Cell extracts were prepared in 50 mM Tris-Cl, PH 7.2, 150 mM NaCl, 1% NP-40, 0.1% SDS, 0.5% sodium deoxycholate supplemented with a protease inhibitor cocktail (Roche) and phosphatase inhibitors (Sigma, phosphatase inhibitor cocktail set 2 and set 3), and protein concentrations were determined by BCA protein assay (Thermo Scientific).
Immunoblotting. Cell or tissue lysates were mixed with 4×SDS sample loading buffer (50 mM Tris-Cl, pH6.8, 2.5% SDS, urea, 4% β-mercaptoethanol), heated for 10 minutes at 95° C., and separated on 4-20% SDS-polyacrylamide gels (Life Technologies) in 1×MOPS running buffer. Proteins were transferred onto PVDF membranes (GE Healthcare). Membranes were blocked in TBST buffer (20 mM Tris-Cl, pH 7.6, 137 mM NaCl, 0.1% Tween-20) containing 5% non-fat dry milk for 1 hour at room temperature, and incubated with anti-pSTAT3^Y705, anti-total STAT3, anti-pERK, anti-total ERK, or anti-β-actin antibodies in blocking buffer at 4° C. overnight. Membranes were washed in TBST extensively, and bound proteins were detected with horseradish peroxidase-conjugated goat-anti-mouse IgG or goat-anti-rabbit IgG antibodies (GE Healthcare) for 1 hour at room temperature. […]
To investigate an in vitro direct effect of FGF19 on STAT3 activation in isolated hepatocytes, pSTAT3^Y705 levels in primary cultures of hepatocytes upon FGF19 stimulation were analyzed by western blotting. […] Cell lysates were prepared at the indicated time points following FGF19 stimulation and analyzed for phosphorylation of the various proteins.

[4] = diet with 0.01% tofacitinib from 4 weeks after AAV-FGF19, 20 weeks

For C[C@@H]1CCN(C(=O)CC#N)C[C@@H]1N(C)c1ncnc2[nH]ccc12 [tofacitinib], the Average tumor load [1, 4] was “reduced”, the “Number of macroscopically detectable tumors” value [1, 4] was “reduced” and the “FGF19's effect on normalizing blood levels of HbA1c” value ([1]; tofacitinib in diet) was “no impact”. For the same molecule, the “FGF19's effect on normalizing blood levels of bile acids” value ([1]; tofacitinib in diet) was “no impact”, the “FGF19's effect on normalizing blood levels of glucose” value ([1]; tofacitinib in diet) was “no impact” and the “FGF19-induced liver tumor formation” value ([1]; tofacitinib initiated 4 weeks after AAV, euthanized at 24 weeks) was “inhibited”.

B1: HGF: recombinant hepatocyte growth factor (Peprotech), positive control for BrdU incorporation (protein, UniProt Q08048 33-495; Q08048 496-728, looked up)
Hepatocyte growth factor …: QKKRRNTLHEFKKSAKTTLTKEDPLLKIKTKKVNSADECANRCIRNRGFTFTCKAFVFDKSRKRCYWYPFNSMSSGVKKGFGHEFDLYENKDYIRNCIIGKGGSYKGTVSITKSGIKCQPWNSMIPHEHSFLPSSYRGKDLQENYCRNPRGEEGGPWCFTSNPEVRYEVCDIPQCSEVECMTCNGESYRGPMDHTESGKTCQRWDQQTPHRHKFLPERYPDKGFDDNYCRNPDGKPRPWCYTLDPDTPWEYCAIKTCAHSAVNETDVPMETTECIQGQGEGYRGTSNTIWNGIPCQRWDSQYPHKHDITPENFKCKDLRENYCRNPDGAESPWCFTTDPNIRVGYCSQIPKCDVSSGQDCYRGNGKNYMGNLSKTRSGLTCSMWDKNMEDLHRHIFWEPDASKLNKNYCRNPDDDAHGPWCYTGNPLIPWDYCPISRCEGDTTPTIVNLDHPVISCAKTKQLR
Hepatocyte growth factor beta …: VVNGIPTQTTVGWMVSLKYRNKHICGGSLIKESWVLTARQCFPARNKDLKDYEAWLGIHDVHERGEEKRKQILNISQLVYGPEGSDLVLLKLARPAILDNFVSTIDLPSYGCTIPEKTTCSIYGWGYTGLINADGLLRVAHLYIMGNEKCSQHHQGKVTLNESELCAGAEKIGSGPCEGDYGGPLICEQHKMRMVLGVIVPGRGCAIPNRPGIFVRVAYYAKWIHKVILTYKL
B1 was tested, and the BrdU signal [2] was “strong BrdU signals”.

B2: IL-6: mouse IL-6 (Peprotech), positive control for pSTAT3 activation (protein, UniProt P08505 25-211, looked up)
Interleukin-6: FPTSQVRRGDFTEDTTPNRPVYTTSQVGGLITHVLWEIVEMRKELCNGNSDCMNNDDALAENNLKLPEIQRNDGCYQTGYNQEICLLKISSGLLEYHSYLEYMKNNLKDNKKDKARVLQRDTETLIHIFNQEVKDLHKIVLPTPISNALLTDKLESQKEWLRTKTIQFILKSLEEFLKVTLRSTRQT
For B2, the “STAT3 phosphorylation (pSTAT3 Y705) by western blotting” value [3] was “robust elevated phosphorylation”.
